Non-standard residues stand in square brackets, D forms with d. Residues, ends and D or L forms follow the SMILES beside them. *: point of attachment. Decanoyl = CCCCCCCCCC(=O)*
Tests used:
[1] = target: T1, Apolipoprotein C-III (P33622) (Mus musculus, UniProt P33622); test: Mass spectrometry of mouse plasma proteins bound to bead-immobilized peptide; format: binding; settings: intensity bound to L-form / D-form of C10-KR8
T1 construct: incubated with 5% mouse plasma; from tissue; host or cells: mouse plasma (5%)
T1 sequence (P33622 21-99): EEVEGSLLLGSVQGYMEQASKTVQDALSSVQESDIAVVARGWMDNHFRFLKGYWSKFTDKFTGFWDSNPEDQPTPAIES
Description: Dynabeads M-370 amine (2×10^9 beads/mL, 50 μL; Thermo Fisher Scientific) were washed 3 times in sterile PBS (1 mL; GIBCO) and reacted with a bifunctional SM(PEG)4 cross-linker (5 mg/mL in DMSO) containing N-hydroxysuccinimide (NHS) ester and maleimide functional groups. A stable covalent bond between the amino group of beads and the NHS ester of the cross-linker was formed in PBS at pH 7.2 at room temperature for 24 hours with shaking at 80 rpm. The beads were then washed six times with PBS to remove nonreacted cross-linker. Next, peptide C10-KR8 (with a cysteine at the N-terminus) at 5 mg/mL was reacted with the free maleimide group in PBS for 24 hours at room temperature with shaking at 80 rpm. Another round of washing was conducted to remove the nonreacted peptides. Both the L-and D-forms of the peptide were coupled in the same manner. A portion of the beads without peptide coupling was saved as a control.
For serum binding experiments, the beads were resuspended in 500 μL of PBS; 200-μL aliquots of the coated and control dynabead were incubated with 5% mouse plasma for 18 hours at 37° C. After binding, the beads were washed six times with PBS to remove unbound proteins. Finally, the beads were suspended in 50 μL of PBS for mass spectrophotometric analysis to identify peptide-binding partners.
The samples were reduced by 10 mM dithiothreitol (DTT) and incubated for 30 minutes at 56° C. and back to room temperature. A final concentration of 50 mM iodoacetamide was added to alkylate free cysteines followed by further incubation for 20 min in the dark. Bound proteins were enzymatically digested by trypsin (4 μL of 0.5 μg/mL) overnight. A 60 […] portion was transferred to a new Eppendorf® tube and dried for 2 hours. The samples were then dissolved in 20 μL of 2% acetonitrile with 0.1% formic acid before being loaded to Q-tip columns (Pepclean, C18 spin column). Column was activated by pipetting in and out (4× times), 10 μL of 70% acetonitrile with 0.1% formic acid, and equilibrating with the same volume of 2% acetonitrile with 0.1% formic acid. Binding of the samples was done by mixing more than 10 × times, followed by washing in the same buffer (2% acetonitrile with 0.1% formic acid). The bound peptides were then eluted with 20 μL of 70% acetonitrile with 0.1% formic acid. Samples were subjected to LC-MS analysis after being suspended in the desired buffer.
Extracted peptides were resuspended in 2% acetonitrile (ACN) and 0.1% formic acid (FA) and loaded onto trap column Acclaim™ PepMap™ 100 75 μm×2 cm C18 LC Columns (Thermo Scientific) at a flow rate of 4 μL/minute. These were then separated with a Thermo RSLC UltiMate™ 3000 on a Thermo Easy-Spray PepMap™ M RSLC C18 75 μm×50 cm C-18 2 μm column (Thermo Scientific) with a step gradient of 4-25% solvent B (0.1% FA in 80% ACN) from 10 to 37 minutes and 25-45% solvent B for 37-46 minutes at 300 nL/min and 50° C. with a 70 minute total run time. Eluted peptides were analyzed by a Thermo Orbitrap Fusion™ Lumos™ Tribrid™ (Thermo Scientific) mass spectrometer in a data dependent acquisition mode. A survey full scan MS (from m/z 350-1800) was acquired in the orbitrap with a resolution of 120000. The AGC target for MS1 was set as 4×10^5 and the ion filling time set as 100 ms. The most intense ions with charge state 2-6 were isolated in 3 second cycle and fragmented using HCD fragmentation with 40% normalized collision energy and detected at a mass resolution of 30000 at 200 m/z. The AGC target for MS/MS was set as 5×10^4 and ion filling time set 60 ms dynamic exclusion was set for 30 seconds with a 10 ppm mass window. Protein identification was performed by searching MS/MS data against the Swiss-Prot mouse protein database. The search was set up for full tryptic peptides with a maximum of two missed cleavage sites. Acetylation of protein N-terminus and oxidized methionine were included as variable modifications, and carbamidomethylation of cysteine was set as fixed modification. […]

[2] = system: S. aureus USA300 LAC; test: Bacterial membrane permeation (propidium iodide); format: cell-based; settings: 12.5 μM
Description: The experiment was performed as described with minor modifications (Mishra, et al. (2019) Proc. Natl. Acad. Sci., 116:13517-13522). Serially diluted 10×peptides (10 μL each well) were created in 96-well microtiter plates. Propidium iodide (2 μL) at a fixed concentration of 20 μM was added to each well followed by 88 μL of the exponential phase S. aureus USA300 culture (a final OD600˜0.1 in TSB media or PBS). Both daptomycin (98%, TSZChem, MA) and rifamycin (98%, Alfa Aesar, MA) were used as controls. The plate was incubated at 37° C. with continuous shaking at 100 rpm in a FLUOstar® Omega (BMG LABTECH, NC) microplate reader. The samples fluorescence was read at every 5 minutes for 24 cycles with excitation and emission wavelengths of 584 and 620 nm, respectively. Plots were generated using average values from the experiments using GraphPad Prism 7.

[3] = In vivo toxicity; parameters: species or system C57BL/6 mice
Description: Toxicity was assessed in female C57BL/6 mice by the intraperitoneal administration of increasing doses of the antimicrobial peptide C10-KR8d (10, 20, and 40 mg/kg) and a control group without peptide treatment. The animals were then observed for 5 days (twice a day). The number of moribund/dead animals for each of the doses was noted and plotted.
Mice were caged, fed, and environmentally adapted as described (Lakshmaia, et al. (2020) Proc. Natl. Acad. Sci., 117:19446-19454). All animal manipulations were performed in a class II laminar flow biological safety cabinet.

Compound	L/D Ratio, Apolipoprotein C-III [1]	membrane permeation (propidium iodide fluorescence) [2]	MTD at 5 days ([3]; female, C57BL/6, mouse, in vivo, ip, C57BL/6 mice, read-out: maximal tolerated dose (MTD)) [mg/kg]	survival of mice ([3]; i.p. 40 mg/kg)	survival of mice ([3]; i.p. 10 or 20 mg/kg, 5 days observation)
CCCCCCCCCC(=O)N[C@@H](CCCCN)C(=O)N[C@@H](CCCNC(=N)N)C(=O)N[C@H](C(=O)N[C@@H](Cc1c[nH]c2ccccc12)C(=O)N[C@@H](CCC(N)=O)C(=O)N[C@@H](CCCNC(=N)N)C(=O)N[C@H](C(=O)N[C@@H](CCCCN)C(N)=O)[C@@H](C)CC)[C@@H](C)CC [Peptide C10-KR8] (Decanoyl-KRIWQRIK-NH2)	3.62	–	–	–	–
CCCCCCCCCC(=O)N[C@H](CCCCN)C(=O)N[C@H](CCCNC(=N)N)C(=O)N[C@@H](C(=O)N[C@H](Cc1c[nH]c2ccccc12)C(=O)N[C@H](CCC(N)=O)C(=O)N[C@H](CCCNC(=N)N)C(=O)N[C@@H](C(=O)N[C@H](CCCCN)C(N)=O)[C@H](C)CC)[C@H](C)CC [Peptide C10-KR8d] (Decanoyl-[dK][dR][dI][dW][dQ][dR][dI][dK]-NH2)	–	able to permeate the membranes of S. aureus USA300 LAC	≥ 20	all mice died in a day	all mice survived

Reference: patent publication US20240294572A1, “Antimicrobial Peptides” (priority 2021, published 2024)
